Article PMC2937029 (PLoS ONE, 2010)
Like-named read-outs stand apart in the source and are kept apart here.

Legend:
HprK/P = molecular target: T1, HprK/P (Brucella melitensis, UniProt Q8YE44)
T1 construct: gene BMEI2034

EI^Ntr = molecular target: T2, EI^Ntr (Brucella melitensis, UniProt Q8YJ96); details: labelled compound; 10 µM [32P]PEP, NPr as acceptor, 5 mM MgCl2, pH 7.4, 37°C; covalent phosphoryl transfer
T2 construct: gene BMEI0190
T2 sequence (Q8YJ96 1-756): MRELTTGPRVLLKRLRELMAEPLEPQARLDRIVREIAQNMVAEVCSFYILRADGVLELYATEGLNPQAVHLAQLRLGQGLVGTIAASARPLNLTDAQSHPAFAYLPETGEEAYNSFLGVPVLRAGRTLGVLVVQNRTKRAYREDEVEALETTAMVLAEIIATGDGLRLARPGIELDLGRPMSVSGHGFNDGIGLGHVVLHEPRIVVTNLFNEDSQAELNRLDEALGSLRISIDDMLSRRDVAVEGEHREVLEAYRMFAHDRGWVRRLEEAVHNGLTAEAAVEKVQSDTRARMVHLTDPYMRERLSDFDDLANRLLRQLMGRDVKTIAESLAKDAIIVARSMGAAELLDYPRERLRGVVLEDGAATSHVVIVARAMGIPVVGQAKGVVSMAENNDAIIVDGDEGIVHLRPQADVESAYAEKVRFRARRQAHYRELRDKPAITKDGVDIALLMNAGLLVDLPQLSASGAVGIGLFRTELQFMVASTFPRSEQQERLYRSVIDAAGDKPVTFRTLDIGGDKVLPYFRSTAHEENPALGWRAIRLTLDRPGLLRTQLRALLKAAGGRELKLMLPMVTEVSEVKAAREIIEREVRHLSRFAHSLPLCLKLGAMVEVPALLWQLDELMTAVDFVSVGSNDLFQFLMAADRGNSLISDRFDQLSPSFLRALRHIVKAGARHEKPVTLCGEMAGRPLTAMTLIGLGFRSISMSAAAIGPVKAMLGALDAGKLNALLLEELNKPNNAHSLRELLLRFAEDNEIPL

T1 sequence (Q8YE44 1-159): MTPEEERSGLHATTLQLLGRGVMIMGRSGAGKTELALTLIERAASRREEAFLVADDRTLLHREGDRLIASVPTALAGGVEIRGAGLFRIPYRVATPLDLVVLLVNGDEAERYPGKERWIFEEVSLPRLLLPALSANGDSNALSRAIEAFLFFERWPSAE

| SMILES | 32P NPr kinase assay, SDS-PAGE, phosphorimaging (HprK/P) | also measured |
| --- | --- | --- |
| Nc1ncnc2c1ncn2[C@@H]1O[C@H](COP(=O)(O)OP(=O)(O)OP(=O)(O)O)[C@@H](O)[C@H]1O [ATP] |  | 32P NPr kinase assay, SDS-PAGE, phosphorimaging (HprK/P; labelled compound, 25 µM [γ-32P]ATP, NPr as acceptor, no FBP or KPi, 5 mM MgCl2, pH 7.4, 37°C): HprK/P phosphorylated wild type NPr and NPrH30A in an ATP-dependent way |
| C=C(OP(=O)(O)O)C(=O)O [PEP] |  | 32P phosphotransfer to NPr, SDS-PAGE, phosphorimaging (EI^Ntr): the additional presence of EI allowed the phosphorylation of wild-type NPr |
| O=P(O)(O)OP(=O)(O)O [PPi] | With both phosphoryl group donors, HprK/P was active as a kinase |  |
| O=P(O)(O)O [Pi] | inhibition of both the ATP- and PPi-dependent kinase activities of B. melitensis HprK/P |  |
